Experiment [1] addresses T1, catalytic domain of human Bub1 (amino acids 704-1085) (Homo sapiens, UniProt O43683).
T1 construct: catalytic domain of human Bub1 (amino acids 704-1085); His6 (N); made in house; host or cells: Hi5 insect cells
The experiment in a line: Bub1 kinase assay (TR-FRET). Format: biochemical. Here is the method: To this end, 100-fold concentrated compound solutions (in DMSO) were previously prepared by serial dilution (1:3.4) of 2 mM stocks in a clear low volume 384-well source microtiter plate (Greiner Bio-One, Frickenhausen, Germany), from which 50 nL of compounds were transferred into a black low volume test microtiter plate from the same supplier. […] The resulting mixture (5 μL final volume) was incubated at 22° C. during 60 min., and the reaction was stopped by the addition of 5 μL of an aqueous EDTA-solution (50 mM EDTA, in 100 mM HEPES pH 7.5 and 0.2% (w/v) bovine serum albumin) which also contained the TR-FRET detection reagents (0.2 μM streptavidin-XL665 [Cisbio Bioassays, Codolet, France] and 1 nM anti-phoshoSerine antibody [Merck Millipore, cat. #35-001] and 0.4 nM LANCE EU-W1024 labeled anti-mouse IgG antibody [Perkin-Elmer, product no. AD0077, alternatively a Terbium-cryptate-labeled anti-mouse IgG antibody from Cisbio Bioassays can be used]). The stopped reaction mixture was further incubated 1 h at 22° C. in order to allow the formation of complexes between peptides and detection reagents. Subsequently, the amount of product was evaluated by measurement of the resonance energy transfer from the Eu-chelate-antibody complex recognizing the Phosphoserine residue to the streptavidin-XL665 bound to the biotin moiety of the peptide.

Another experiment deals with HeLa cell line. Briefly: Proliferation assay (HeLa cell line). The experiment is classed as cell-based. The settings on record: Homo sapiens, 96 h, read-out: Biological Assay 2: Proliferation assay (HeLa cell line) median IC50. Here is the method: Cultivated tumor cells (cells were ordered from ATCC, except HeLa-MaTu and HeLa-MaTu-ADR, which were ordered from EPO-GmbH, Berlin) were plated at a density of 1000 to 5000 cells/well, depending on the growth rate of the respective cell line, in a 96-well multititer plate in 200 μL of their respective growth medium supplemented 10% fetal calf serum. After 24 hours, the cells of one plate (zero-point plate) were stained with crystal violet (see below), while the medium of the other plates was replaced by fresh culture medium (200 μL), to which the test substances were added in various concentrations (0 μM, as well as in the range of 0.001-10 μM; the final concentration of the solvent dimethyl sulfoxide was 0.5%). The cells were incubated for 4 days in the presence of test substances. Cell proliferation was determined by staining the cells with crystal violet: the cells were fixed by adding 20 μL/measuring point of an 11% glutaric aldehyde solution for 15 minutes at room temperature. After three washing cycles of the fixed cells with water, the plates were dried at room temperature. The cells were stained by adding 100 μL/measuring point of a 0.1% crystal violet solution (pH 3.0). After three washing cycles of the stained cells with water, the plates were dried at room temperature. The dye was dissolved by adding 100 μl/measuring point of a 10% acetic acid solution. Absorbtion was determined by photometry at a wavelength of 595 nm. The change of cell number, in percent, was calculated by normalization of the measured values to the absorbtion values of the zero-point plate (=0%) and the absorbtion of the untreated (0 μm) cells (=100%). The IC50 values were determined by means of a 4 parameter fit.

Setting [2] is: 10 μM ATP, 1 μM peptide substrate, TR-FRET, read-out: Biological Assay 1: Bub1 kinase assay median IC50.
Where [3] appears, read: 4 days incubation, crystal violet staining.

Molecules are shown by their SMILES. pIC50: −log10 of the molar value. Where two headings read alike, the source gives them in different places.

T1 sequence (O43683 704-1085): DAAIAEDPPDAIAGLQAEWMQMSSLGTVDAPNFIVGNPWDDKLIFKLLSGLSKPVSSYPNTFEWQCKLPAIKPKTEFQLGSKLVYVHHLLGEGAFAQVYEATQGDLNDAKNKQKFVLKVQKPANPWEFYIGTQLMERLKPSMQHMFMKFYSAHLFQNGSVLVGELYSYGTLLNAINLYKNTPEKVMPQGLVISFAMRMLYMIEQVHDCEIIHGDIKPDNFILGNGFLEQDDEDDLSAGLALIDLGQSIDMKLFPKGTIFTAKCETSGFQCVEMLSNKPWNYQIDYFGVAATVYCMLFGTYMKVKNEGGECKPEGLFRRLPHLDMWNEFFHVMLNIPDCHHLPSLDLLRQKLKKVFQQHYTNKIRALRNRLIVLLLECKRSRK

As to `CCOc1cc(F)c(Cn2nc(-c3nc(N)cc(Nc4ccncc4)n3)c(C)c2C2CC2)c(F)c1` [Example 2-1-1, 2-[5-cyclopropyl-1-(4-ethoxy-2,6-difluorobenzyl)-4-methyl-1H-pyrazol-3-yl]-N-(pyridin-4-yl)pyrimidine-4,6-diamine], the pIC50 in experiment [1] (setting [2]) is 8.00; with HeLa cell line it was less than 5.00.

`CCOc1cc(F)c(Cn2nc(-c3nc(N)cc(Nc4ccnc(OC)c4)n3)c(C)c2C2CC2)c(F)c1` [Example 2-1-2, 2-[5-cyclopropyl-1-(4-ethoxy-2,6-difluorobenzyl)-4-methyl-1H-pyrazol-3-yl]-N-(2-methoxypyridin-4-yl)pyrimidine-4,6-diamine]: the figures for the pIC50 (in experiment [1] (setting [2]); with HeLa cell line) were 6.59 and 5.12, respectively.

Take `CCOc1cc(F)c(Cn2nc(-c3nc(N)cc(Nc4ccncn4)n3)c(C)c2C2CC2)c(F)c1` [Example 2-1-3, 2-[5-cyclopropyl-1-(4-ethoxy-2,6-difluorobenzyl)-4-methyl-1H-pyrazol-3-yl]-N-(pyrimidin-4-yl)pyrimidine-4,6-diamine]: the pIC50 is 8.20 in experiment [1] (setting [2]) and 5.51 in the experiment on HeLa cell line. For the molecule `CCOc1cc(F)c(Cn2nc(-c3nc(N)c(OC)c(Nc4ccncc4)n3)c(C)c2C2CC2)c(F)c1` [Example 2-1-4, 2-[5-cyclopropyl-1-(4-ethoxy-2,6-difluorobenzyl)-4-methyl-1H-pyrazol-3-yl]-5-methoxy-N-(pyridin-4-yl)pyrimidine-4,6-diamine], the pIC50 in experiment [1] (setting [2]) is 8.32; in the experiment on HeLa cell line it was 5.46. As for `CCOc1cc(F)c(Cn2nc(-c3nc(N)c(N4CCOCC4)c(Nc4ccncc4)n3)c(C)c2C2CC2)c(F)c1` [Example 2-1-6, 2-[5-cyclopropyl-1-(4-ethoxy-2,6-difluorobenzyl)-4-methyl-1H-pyrazol-3-yl]-5-(morpholin-4-yl)-N-(pyridin-4-yl)pyrimidine-4,6-diamine], the pIC50 in experiment [1] (setting [2]) was 7.92; with HeLa cell line, 5.28.

Take `CCOc1cc(F)c(Cn2nc(-c3nc(N)c(N4CCOCC4)c(Nc4ccncn4)n3)c(C)c2C2CC2)c(F)c1` [Example 2-1-7, 2-[5-cyclopropyl-1-(4-ethoxy-2,6-difluorobenzyl)-4-methyl-1H-pyrazol-3-yl]-5-(morpholin-4-yl)-N-(pyrimidin-4-yl)pyrimidine-4,6-diamine]: the pIC50 in experiment [1] (setting [2]) is 8.01; in the experiment with HeLa cell line, 5.28. In the case of `CCOc1cc(F)c(Cn2nc(-c3nc(N)nc(Nc4ccncc4)n3)c(C)c2C2CC2)c(F)c1` [Example 2-1-8, 6-[5-cyclopropyl-1-(4-ethoxy-2,6-difluorobenzyl)-4-methyl-1H-pyrazol-3-yl]-N-(pyridin-4-yl)-1,3,5-triazine-2,4-diamine], the pIC50 was 8.15 in experiment [1] and 5.42 in the experiment with HeLa cell line (setting [3]). As for `CCOc1cc(F)c(Cn2nc(-c3nc(N)nc(Nc4ccncn4)n3)c(C)c2C2CC2)c(F)c1` [Example 2-1-9, 6-[5-cyclopropyl-1-(4-ethoxy-2,6-difluorobenzyl)-4-methyl-1H-pyrazol-3-yl]-N-(pyrimidin-4-yl)-1,3,5-triazine-2,4-diamine], the pIC50 in experiment [1] was 7.92; in the experiment on HeLa cell line (setting [3]) it was 5.22. Regarding `CCNC(=O)Nc1cc(Nc2ccncn2)nc(-c2nn(Cc3c(F)cc(OCC)cc3F)c(C3CC3)c2C)n1` [Example 2-1-11, 1-{2-[5-cyclopropyl-1-(4-ethoxy-2,6-difluorobenzyl)-4-methyl-1H-pyrazol-3-yl]-6-(pyrimidin-4-ylamino)pyrimidin-4-yl}-3-ethylurea], the pIC50 was 6.89 in experiment [1] (setting [2]) and 5.31 in the experiment on HeLa cell line. As to `CCOc1cc(F)c(Cn2nc(-c3nc(NC(=O)NC4CCCCC4)cc(Nc4ccncc4)n3)c(C)c2C2CC2)c(F)c1` [Example 2-1-12, 1-cyclohexyl-3-{2-[5-cyclopropyl-1-(4-ethoxy-2,6-difluorobenzyl)-4-methyl-1H-pyrazol-3-yl]-6-(pyridin-4-ylamino)pyrimidin-4-yl}urea], the pIC50 in experiment [1] (setting [2]) was 6.62. Take `CCOc1cc(F)c(Cn2nc(-c3nc(NC(=O)NC4CCCCC4)cc(Nc4ccncn4)n3)c(C)c2C2CC2)c(F)c1` [Example 2-1-13, 1-cyclohexyl-3-{2-[5-cyclopropyl-1-(4-ethoxy-2,6-difluorobenzyl)-4-methyl-1H-pyrazol-3-yl]-6-(pyrimidin-4-ylamino)pyrimidin-4-yl}urea]: the pIC50 in experiment [1] (setting [2]) was 6.26. In the case of `CCNC(=O)Nc1nc(-c2nn(Cc3c(F)cc(OCC)cc3F)c(C3CC3)c2C)nc(Nc2ccncc2)c1OC` [Example 2-1-14, 1-{2-[5-cyclopropyl-1-(4-ethoxy-2,6-difluorobenzyl)-4-methyl-1H-pyrazol-3-yl]-5-methoxy-6-(pyridin-4-ylamino)pyrimidin-4-yl}-3-ethylurea], the pIC50 is 6.51 in experiment [1] (setting [2]) and 5.42 in the experiment on HeLa cell line. As to `CCNC(=O)Nc1nc(-c2nn(Cc3c(F)cc(OCC)cc3F)c(C3CC3)c2C)nc(Nc2ccncn2)c1OC` [Example 2-1-15, 1-{2-[5-cyclopropyl-1-(4-ethoxy-2,6-difluorobenzyl)-4-methyl-1H-pyrazol-3-yl]-5-methoxy-6-(pyrimidin-4-ylamino)pyrimidin-4-yl}-3-ethylurea], the pIC50 in experiment [1] (setting [2]) was 6.47. As for `CCOc1cc(F)c(Cn2nc(-c3nc(NC(=O)NC4CCCCC4)c(OC)c(Nc4ccncc4)n3)c(C)c2C2CC2)c(F)c1` [Example 2-1-16, 1-cyclohexyl-3-{2-[5-cyclopropyl-1-(4-ethoxy-2,6-difluorobenzyl)-4-methyl-1H-pyrazol-3-yl]-5-methoxy-6-(pyridin-4-ylamino)pyrimidin-4-yl}urea], the pIC50 in experiment [1] is 6.47; with HeLa cell line (setting [3]), 5.48.

As for `CCOc1cc(F)c(Cn2nc(-c3nc(NC(=O)NC4CCCCC4)c(OC)c(Nc4ccncn4)n3)c(C)c2C2CC2)c(F)c1` [Example 2-1-17, 1-cyclohexyl-3-{2-[5-cyclopropyl-1-(4-ethoxy-2,6-difluorobenzyl)-4-methyl-1H-pyrazol-3-yl]-5-methoxy-6-(pyrimidin-4-ylamino)pyrimidin-4-yl}urea], the pIC50 was 5.85 in experiment [1] (setting [2]) and 5.26 in the experiment on HeLa cell line. Regarding `CCOc1cc(F)c(Cn2nc(-c3nc(Nc4ccnc(OC)c4)cc(Nc4ccnc(OC)c4)n3)c(C)c2C2CC2)c(F)c1` [Example 2-2-2, 2-[5-cyclopropyl-1-(4-ethoxy-2,6-difluorobenzyl)-4-methyl-1H-pyrazol-3-yl]-N,N′-bis(2-methoxypyridin-4-yl)pyrimidine-4,6-diamine], in experiment [1], the pIC50 was no more than 4.70. As to `CCOc1cc(F)c(Cn2nc(-c3nc(Nc4ccncc4)c(OC)c(Nc4ccncc4)n3)c(C)c2C2CC2)c(F)c1` [Example 2-2-4, 2-[5-cyclopropyl-1-(4-ethoxy-2,6-difluorobenzyl)-4-methyl-1H-pyrazol-3-yl]-5-methoxy-N,N′-di(pyridin-4-yl)pyrimidine-4,6-diamine], in experiment [1] (setting [2]), the pIC50 is 6.51. The molecule `CCOc1cc(F)c(Cn2nc(-c3nc(Nc4ccncn4)c(N4CCOCC4)c(Nc4ccncn4)n3)c(C)c2C2CC2)c(F)c1` [Example 2-2-7, 2-[5-cyclopropyl-1-(4-ethoxy-2,6-difluorobenzyl)-4-methyl-1H-pyrazol-3-yl]-5-(morpholin-4-yl)-N,N′-di(pyrimidin-4-yl)pyrimidine-4,6-diamine] showed a pIC50 in experiment [1] of 6.85. `CCOc1cc(F)c(Cn2nc(-c3nc(Nc4ccncc4)nc(Nc4ccncc4)n3)c(C)c2C2CC2)c(F)c1` [Example 2-2-8, 6-[5-cyclopropyl-1-(4-ethoxy-2,6-difluorobenzyl)-4-methyl-1H-pyrazol-3-yl]-N,N′-di(pyridin-4-yl)-1,3,5-triazine-2,4-diamine] had a pIC50 in experiment [1] of 7.17. In the case of `CCOc1cc(F)c(Cn2nc(-c3nc(Nc4ccnnc4)nc(Nc4ccnnc4)n3)c(C)c2C2CC2)c(F)c1` [Example 2-2-11, 6-[5-cyclopropyl-1-(4-ethoxy-2,6-difluorobenzyl)-4-methyl-1H-pyrazol-3-yl]-N,N′-di(pyridazin-4-yl)-1,3,5-triazine-2,4-diamine], the pIC50 in experiment [1] is 5.26.
